Some test systems named below: Enterobacter cloacae; Klebsiella pneumoniae; Vibrio cholerae; Escherichia coli UTI89; Pseudomonas aeruginosa; Bacillus cereus; Aeromonas hydrophila; Pseudomonas fluorescens; Candida albicans; Vibrio alginolyticus; Escherichia coli; Cryptococcus neoformans; Bacillus subtilis; Vibrio parahaemolyticus; Shigella flexneri; Staphylococcus aureus; Escherichia coli L361; Bacillus cereus ACM 446; Escherichia coli O9; Enterococcus faecalis A4; Staphylococcus aureus MR.

What all share (experiment): ≥ marks a high value that may be exact or a test limit, other limits are often not marked, values filed in µg/mL are converted to µM
Test [1] deals with Pseudomonas aeruginosa PAO1.
Test [2] deals with Escherichia coli ATCC 35218.
The test system of test [3] is Klebsiella pneumoniae ATCC 700603.
Test [4] relates to Pseudomonas aeruginosa ATCC 27853.
For test [5], the system named is Escherichia coli ATCC 25922.
Test [6] concerns Klebsiella pneumoniae NDM-1.
For test [7], the system named is Staphylococcus epidermidis.
Test [8] deals with Salmonella enterica subsp. enterica serovar Salford IMVS 1710.
Test [9] relates to Staphylococcus aureus NCTC 6571.
Test [10] deals with Listeria monocytogenes NCTC 7973.
The test system of test [11] is Bacillus licheniformis ATCC 14580.
In test [12] the test system is Staphylococcus aureus 215.
Test [13] deals with Proteus mirabilis ATCC 35659.
The subject of test [14] is Bacillus cereus ATCC 14579.
Test [15] has as its system Salmonella enterica ATCC H9812.
The subject of test [16] is Bacillus subtilis ATCC 6051.
The test system of test [17] is Bacillus amyloliquefaciens ATCC 23842.
For test [18], the system named is Staphylococcus aureus ATCC 29213.
The subject of test [19] is Enterococcus faecium 5F-10.
The test system of test [20] is Enterococcus faecium 4W-9.
In test [21] the test system is Enterococcus faecalis 1F-1.
Test [22] concerns Staphylococcus aureus NCTC 10788.
Test [23] concerns Candida albicans NCYC 1467.
Test [24] relates to Klebsiella pneumoniae ATCC 43816.
For test [25], the system named is Enterococcus faecalis NCTC 12697.
For test [26], the system named is Escherichia coli NCTC 10418.
In test [27] the test system is Staphylococcus aureus ATCC 12493.

SMILES strings stand for the structures. In brackets after ≈: the same amount, converted by molar mass.

In the case of `CC[C@H](C)[C@H](NC(=O)[C@@H](NC(=O)[C@@H]1CCCN1C(=O)[C@H](CO)NC(=O)[C@H](CC(C)C)NC(=O)[C@H](CCCCN)NC(=O)[C@H](CCCCN)NC(=O)[C@H](Cc1ccccc1)NC(=O)[C@H](CC(C)C)NC(=O)[C@H](CCCCN)NC(=O)[C@H](CCCCN)NC(=O)[C@H](CC(C)C)NC(=O)[C@H](CCCCN)NC(=O)[C@H](CCCCN)NC(=O)[C@H](CCCN=C(N)N)NC(=O)[C@@H](N)Cc1ccccc1)C(C)C)C(=O)N1CCC[C@H]1C(=O)N[C@@H](CC(C)C)C(=O)N[C@@H](CC(C)C)C(=O)N[C@@H](CCCCN)C(=O)N[C@@H](CC(C)C)C(=O)NCC(N)=O` [FRKKLKKLFKKLSPVIPLLKLG], the minimum inhibitory concentration (MIC) (in general, the lowest concentration found to suppress growth) with Enterobacter cloacae was 4 µM (≈ 10.4 µg/mL); against Klebsiella pneumoniae it was 2 µM (≈ 5.19 µg/mL); in test [1], 2 µM (≈ 5.19 µg/mL); in [2], 2 µM (≈ 5.19 µg/mL); in [3], 2 µM (≈ 5.19 µg/mL); in test [4] it was 2 µM (≈ 5.19 µg/mL). In addition, the MIC in [5] was 2 µM (≈ 5.19 µg/mL); in the test with Vibrio cholerae, 4 µM (≈ 10.4 µg/mL); against Escherichia coli UTI89 it was 2 µM (≈ 5.19 µg/mL); in test [6], 2.83 µM (≈ 7.34 µg/mL).
Turning to `CSCC[C@H](NC(=O)[C@H](CCCCN)NC(=O)[C@H](CCC(N)=O)NC(=O)[C@H](CCSC)NC(=O)[C@H](CC(N)=O)NC(=O)[C@H](CCCN=C(N)N)NC(=O)[C@H](CC(N)=O)NC(=O)[C@H](Cc1ccc(O)cc1)NC(=O)[C@H](CCCCN)NC(=O)[C@H](Cc1ccc(O)cc1)NC(=O)[C@H](CC(=O)O)NC(=O)[C@H](CCCCN)NC(=O)[C@H](Cc1c[nH]c2ccccc12)NC(=O)[C@H](C)NC(=O)[C@H](CCC(N)=O)NC(=O)[C@H](CCCN=C(N)N)NC(=O)[C@H](C)NC(=O)CNC(=O)[C@@H](N)CCCCN)C(=O)N[C@@H](CC(N)=O)C(=O)N[C@@H](CCC(N)=O)C(=O)NCC(=O)N[C@@H](Cc1ccc(O)cc1)C(=O)NCC(=O)N[C@@H](CCC(N)=O)C(=O)N[C@@H](CCC(N)=O)C(=O)NCC(=O)NCC(=O)O` [KGARQAWKDYKYNRNMQKMNQGYGQQGG], the MIC with Pseudomonas aeruginosa was above 50 µM; with Bacillus cereus, at least 50 µM; in [7], at least 50 µM; in the test with Aeromonas hydrophila it was at least 50 µM; against Pseudomonas fluorescens, at least 50 µM; against Candida albicans, above 50 µM. Moreover, the MIC in the test with Vibrio alginolyticus was at least 50 µM; with Escherichia coli, above 50 µM; against Cryptococcus neoformans, 17.7 µM (≈ 58.5 µg/mL); against Bacillus subtilis, at least 35.4 µM; in the test with Vibrio parahaemolyticus, at least 50 µM; in the test on Shigella flexneri it was at least 50 µM. This compound displayed a minimum inhibitory concentration (MIC) with Staphylococcus aureus above 50 µM.
Regarding `CC[C@H](C)[C@H](NC(=O)[C@H](CO)NC(=O)[C@@H]1CCCN1C(=O)[C@H](C)NC(=O)CNC(=O)[C@H](CC(C)C)NC(=O)[C@H](CCCCN)NC(=O)[C@@H](N)CCCCN)C(=O)N[C@H](C(=O)N[C@@H](CS)C(=O)N[C@H](C(=O)N[C@@H](CCCN=C(N)N)C(=O)N[C@@H](CCCN=C(N)N)C(=O)N[C@@H](C)C(=O)N[C@@H](Cc1ccccc1)C(=O)N[C@@H](C)C(=O)O)C(C)C)[C@@H](C)O` [KKLGAPSITCVRRAFA], the MIC in test [8] was at least 100 µM; in the test with Pseudomonas fluorescens, at least 100 µM; in test [9] it was at least 100 µM; in test [10], at least 40 µM; against Escherichia coli L361, at least 50 µM; with Bacillus cereus ACM 446, at least 100 µM. In addition, the MIC against Escherichia coli O9 is at least 60 µM.
As for `CC(C)C[C@H](NC(=O)[C@H](CC(C)C)NC(=O)[C@@H](N)CCC(=O)O)C(=O)N[C@@H](CO)C(=O)N[C@@H](C)C(=O)N[C@H](C(=O)N[C@@H](CC(=O)O)C(=O)O)C(C)C` [ELLSAVD], the MIC was at least 172 µM in test [11]; at least 172 µM in the test with Enterococcus faecalis A4; above 172 µM in [1]; at least 172 µM in test [12]; at least 172 µM in [13]; at least 172 µM in [14]. Further, the MIC in test [15] was at least 172 µM; in the test with Staphylococcus aureus MR it was at least 172 µM; in test [16], at least 172 µM; in test [17], at least 172 µM; in test [5], 85.8 µM (≈ 64 µg/mL); in [18], above 172 µM. Besides, the MIC in test [19], in test [20] and in test [21] was at least 172 µM each time.
In the case of `CC[C@H](C)[C@H](NC(=O)[C@H](CO)NC(=O)[C@H](CCCCN)NC(=O)[C@H](Cc1c[nH]c2ccccc12)NC(=O)[C@H](CC(C)C)NC(=O)[C@H](C)N)C(=O)N[C@@H](CC(C)C)C(=O)N[C@@H](CCCCN)C(=O)N[C@@H](CC(N)=O)C(=O)N[C@H](C(=O)NCC(=O)N[C@@H](CCCCN)C(=O)N[C@@H](C)C(=O)N[C@@H](C)C(=O)NCC(=O)N[C@@H](CCCCN)C(=O)N[C@@H](C)C(=O)N[C@H](C(=O)N[C@@H](CC(C)C)C(=O)N[C@@H](CC(N)=O)C(=O)N[C@@H](C)C(=O)N[C@H](C(=O)N[C@H](C(=O)N[C@@H](CC(=O)O)C(=O)N[C@@H](CCSC)C(=O)N[C@H](C(=O)N[C@@H](CC(N)=O)C(=O)N[C@@H](CCC(N)=O)C(N)=O)C(C)C)[C@@H](C)O)C(C)C)C(C)C)C(C)C` [ALWKSILKNVGKAAGKAVLNAVTDMVNQ], the MIC in test [22] was 2 µM (≈ 5.88 µg/mL); in test [23], 2 µM (≈ 5.88 µg/mL); in test [24], 8 µM (≈ 23.5 µg/mL); in test [25], at least 32 µM; in [4], 4 µM (≈ 11.8 µg/mL); in test [26], 4 µM (≈ 11.8 µg/mL). For the same compound, the MIC amounted to 2 µM (≈ 5.88 µg/mL) in [27] and 4 µM (≈ 11.8 µg/mL) in the test on Staphylococcus aureus.

The record behind these values is DBAASP.
